Test [1] concerns the target T1, TRPV1 (Homo sapiens, UniProt Q8NER1).
T1 construct: expressed in transfected cells; host or cells: HEK293-Tet-OFF
The test is described as follows: TRPV1 Screening Assay (FLIPR). Format: cell-based. To be noted: HEK293-TetOFF-TRPV1, PMA, read-out: VR1 flipr PMA IC50.

Test [2] addresses T1, TRPV1. The test is described as follows: TRPV1 Screening Assay (FLIPR). Format: cell-based. Particulars: HEK293-TetOFF-TRPV1, capsaicin (50 nM final), read-out: VR1 flipr CAPSAICIN IC50. The text has this: • 1) Cell line: HEK293-Tet^OFF-TRPV1 • 2) Media: MEM (Invitrogen) • 3) 10% Tet-FBS (Clontech #8630-1) • 4) Fungizone (Gibco #15290-018 (100×)) • 5) Penn/Strep (Gibco #15140-122 (100×)) • 6) Geneticin (Gibco #10131-027 (100×)) • 7) Hygromycin (Clontech #8057-1) • 8) Doxycycline (Clontech #8634-1) • 9) Trypsin/EDTA (Gibco #25200-056) • 10) 100 mm cell culture plates (Falcon #3003) • 11) 96-well poly-D-lysine plates (Fisher #08-774-256) • 12) Hank's Balanced Salt Solution (HBSS) (GIBCO #14025-092) • 13) HEPES Buffer (GIBCO #15630-080) • 14) 30% BSA (Research Organics #1334A) • 15) Probenecid (Sigma P-8761) • 16) Fluo-4, AM (50 μg) (Molecular robes F-23917) • 17) Pluronic F-127 20% (Molecular Probes P-3000). • 18) capsazepine (Sigma C-191) • 19) capsaicin (Sigma M-2028) • 20) compound plates (NUNC #442587) • 21) black pipet tips 96-well FLIPR (Robbins Scientific 1043-24-0) • 22) Additional reagents available from Fisher: methanol, DMSO, NaOH Reagent Preparation: 1) Cells: HEK293-Tet^OFF-TRPV11
• and Doxycycline 2.5 μg/mL final (from a 1000× stock in PBS) • Cells must be fed and/or split every 2-3 days (to maintain transcriptional repression with Doxycycline). • Must be split no more than 1:5 (50-75% confluency) to maintain growth and viability. • Grown on regular tissue culture plates (e.g. Falcon 3003-100 mm) • SpliT-cells via Trypsin/EDTA: incubate with trypsin at room temperature no longer than 5 min (HEK293 cells have a tendency to ball up if over trypsinized). • Two days prior to assay, the cells are split into 96-well plates in cell media in the absence of doxycycline at a concentration of 40,000 cells/well in a volume of 200 μL, 2) FLIPR buffer is prepared fresh:
Add 5 mL of Probenecid Solution, prepared as follows: 710 mg of probenecid (Sigma P-8761) is solubilized in 5 mL of 1 N NaOH, 5 mL of above buffer s added for final volume of 10 mL (of which 5 mL goes back into FLIPR buffer)
Combine 42 μL of dye mixture with 11 mL of FLIPR buffer/96-well plate.
Stock solution of 0.1 M capsaicin is prepared in MeOH (50 mg+1.6 mL MeOH). Store 50 μL aliquots at −80° C.
For assay: • a) Dilute stock by adding 0.8 μL into 1 mL of MeOH (final=80 μM). • b) Add 50 μL of diluted stock to 20 mL of FLIPR buffer (final=0.2 μM) • c) Agonist solution is added 150 μL/well to 96-well plate. • d) Final agonist concentration on cells will be 50 nM. […] Laser is adjusted upwards for an average signal≧10,000/well and less than 10% variability. 7) Compound addition conditions are as follows: • FLIPR setup (dual sequence parameters): • Sequence 1: • First interval 1 sec/60 counts • Second interval 6 sec/50 counts • Fluid addition=50 μL • Pipettor=110 μL • Dispense Speed=30 μL/sec • Sequence 2: • Second interval 1 sec/60 counts • Second interval 6 sec/40 counts • Fluid addition=50 μL • Pipettor height=140 μL • Dispense Speed=50 μL/sec Data Analysis:
1) Data from both additions is reported as Max-Min for each well

pIC50: −log10 of the molar value. Where two headings read alike, the source gives them in different places.

This note sets out measurements from US20080076750A1, “Azetidinone Derivatives and Methods of Use Thereof” (priority 2006, published 2008).

Usually pIC50 stands for the IC50 on a negative log10 scale, so that one unit is a factor of ten.

T1 sequence (Q8NER1 whole entry, species assumed): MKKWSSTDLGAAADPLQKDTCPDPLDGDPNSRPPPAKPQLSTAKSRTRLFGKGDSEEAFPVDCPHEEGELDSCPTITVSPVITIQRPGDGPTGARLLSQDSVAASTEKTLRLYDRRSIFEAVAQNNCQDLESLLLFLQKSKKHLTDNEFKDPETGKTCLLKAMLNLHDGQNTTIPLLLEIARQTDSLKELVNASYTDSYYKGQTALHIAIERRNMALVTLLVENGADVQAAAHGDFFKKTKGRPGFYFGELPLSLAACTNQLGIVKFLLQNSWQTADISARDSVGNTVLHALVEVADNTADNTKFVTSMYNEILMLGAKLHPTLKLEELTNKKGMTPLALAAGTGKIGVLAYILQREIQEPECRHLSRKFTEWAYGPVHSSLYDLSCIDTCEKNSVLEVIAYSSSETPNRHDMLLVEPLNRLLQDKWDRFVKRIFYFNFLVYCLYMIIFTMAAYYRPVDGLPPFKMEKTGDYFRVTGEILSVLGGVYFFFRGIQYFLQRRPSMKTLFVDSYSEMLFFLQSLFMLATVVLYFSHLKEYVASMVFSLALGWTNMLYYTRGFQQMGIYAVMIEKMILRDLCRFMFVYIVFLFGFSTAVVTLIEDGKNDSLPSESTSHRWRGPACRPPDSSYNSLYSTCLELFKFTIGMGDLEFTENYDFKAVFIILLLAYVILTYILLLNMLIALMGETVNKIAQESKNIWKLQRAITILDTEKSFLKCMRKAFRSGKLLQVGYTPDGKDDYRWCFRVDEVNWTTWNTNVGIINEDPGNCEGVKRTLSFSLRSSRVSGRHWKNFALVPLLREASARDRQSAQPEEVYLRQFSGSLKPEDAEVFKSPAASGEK

Take `O=C(Nc1ccc(C(F)(F)F)cc1)N1CCC2(CC1)C(=O)N(c1ccccc1)C2c1ccccn1` (stereo not drawn): the pIC50 on TRPV1 [1] and at TRPV1 [2] was 7.48 each time.

For `CC(C)c1ccc(NC(=O)N2CCC3(CC2)C(=O)N(c2ccccc2)C3c2ccccn2)cc1` (stereo not drawn), the pIC50 at TRPV1 [1] is 7.09; on TRPV1 [2], 7.15.

`O=C(Nc1ccc(Oc2ccccc2)cc1)N1CCC2(CC1)C(=O)N(c1ccccc1)C2c1ccccn1` (stereo not drawn): the negative logarithm of the IC50 (pIC50) at TRPV1 [1] is 6.85; on TRPV1 [2], 6.59.

`CC(C)c1ccc(NC(=O)N2CCC3(CC2)C(=O)N(c2cncnc2)C3c2ccccn2)cc1` (stereo not drawn): the pIC50 on TRPV1 [1] is 6.60; at TRPV1 [2], 6.52.

In the case of `CC(C)c1ccc(NC(=O)N2CCC3(CC2)C(=O)N(c2ccccc2)C3c2ccccc2)cc1` (stereo not drawn) [drawing 426], the results for the pIC50 at TRPV1 [1] and at TRPV1 [2] were 7.37 and 7.09, respectively.

`CC(C)c1ccc(NC(=O)N2CCC3(CC2)C(=O)N(c2ccccc2)C3c2ccccc2)cc1` (stereo not drawn) [drawing 427]: the pIC50 was 7.00 on TRPV1 [1] and 6.86 at TRPV1 [2].
